Experimental data published in publication PMC10194981, “Chemosensory protein regulates the behavioural response of Frankliniella intonsa and Frankliniella occidentalis to tomato zonate spot virus–Infected pepper (Capsicum annuum)” (PLOS Pathogens, 2023).

Legend:
[1] = target: recombinant wild-type FintCSP1 (Frankliniella intonsa, UniProt A0A891LVF4); assay: Fluorescence (1-NPN) binding and competitive binding assay, wild-type FintCSP1; conditions: wild-type FintCSP1
Procedure: FintCSP1 and FoccCSP DNA were released from pEASY-T1/FintCSP1 and pEASY-T1/FoccCSP, respectively, by restriction digestion with BamHI and XhoI and cloned into the pET-30a vector (Invitrogen). The resulting construct was transformed into Transetta (DE3) Escherichia coli competent cells (Transgen). The production of recombinant FintCSP1 and FoccCSP was induced by addition of isopropyl-β-D-1-thiogalactopyranoside (IPTG, 0.2 mM) at 15°C and purified by Ni ion affinity chromatography (Sangon Biotech, Shanghai, China). The target protein was verified by 15% SDS-PAGE, and its concentration was determined with a BCA protein assay kit (Thermo Scientific, Rockford, IL, USA). The recombinant purified protein was stored at −20°C until use.
(§1) The binding affinity of FintCSP1 and FoccCSP to the fluorescent probe N-phenyl-1-naphthylamine (1-NPN) was tested using a Spectramax M2 fluorescence spectrometer (Molecular Devices, USA) as reported previously. […] The 1-NPN/FintCSP1 or 1-NPN/FoccCSP mixture was excited at 280 nm, and the emission spectra were recorded at 415 nm. The binding constants (Kd) of FintCSP1 or FoccCSP to 1-NPN were calculated by Scatchard analysis using Prism 5 software (GraphPad, La Jolla, CA, USA). Assuming a protein activity of 100% and that the volatile compound binds to the protein in a 1:1 ratio at saturation, the dissociation constants (Ki) of FintCSP1 or FoccCSP for each ligand were calculated according to the IC50 (the concentration when the ligand replaces 50% of the probe) value of the volatile compounds. The Ki values were calculated according to the following equation: Ki = [IC50]/(1 + [1-NPN]/K1-NPN), where [1-NPN] is the free concentration of 1-NPN, and K1-NPN is the Kd of the 1-NPN/FintCSP1 or 1-NPN/FoccCSP.

FoccCSP-Glu67Ala = FoccCSP-Glu67Ala (Frankliniella occidentalis, UniProt G4Y3X1, E67A); assay: Fluorescence (1-NPN) binding and competitive binding assay, FoccCSP mutant
Procedure: as §1
(§2) To verify the key amino acids of FintCSP1 and FoccCSP that bind to cis-3-hexenal, six amino acid residues of FintCSP1 were mutated (Lys26Ala, Phe27Ala, Thr28Ala, Glu67Ala, Ser84Ala, and the negative control residue Val132Ala) and nine amino acid residues of FoccCSP were mutated (Lys26Ala, Phe27Ala, Thr28Ala, Thr29Ala, Tyr31Ala, Asp64Ala, Glu67Ala, Gln87Ala, and the negative control residue Val132Ala) with the Fast Mutagenesis System Kit (Transgen Biotech, Beijing, China) using the pET-30a/FintCSP1 and pET-30a/FoccCSP plasmid DNA as template, respectively. Specific primers were designed using Primer Premier 5.0 according to the instructions of the Fast Mutagenesis System Kit (S1 Table). After validation by sequencing, each recombinant variant protein was produced and purified as described above, and their binding affinity to cis-3-hexenal was measured as described above.

FoccCSP-Phe27Ala = FoccCSP-Phe27Ala (Frankliniella occidentalis, UniProt G4Y3X1, F27A); assay: as above
Procedure: as §1, §2

FoccCSP-Thr29Ala = FoccCSP-Thr29Ala (Frankliniella occidentalis, UniProt G4Y3X1, T29A); assay: as above
Procedure: as §1, §2

F. intonsa = assay: Y-tube olfactometer preference test; assay type: in vivo, Frankliniella intonsa
Procedure: F. intonsa and F. occidentalis preference tests of plant volatile cues were performed using a glass Y-tube olfactometer according to the method described by Wang et al. (2014) with minor modifications. A Y-shaped tube (1-cm inner diameter) consisted of a central tube (10 cm in length) and two arms (10 cm in length, offset by 60°) connected to two different glass odor bottles. One glass odor bottle was 50 cm in height, with a 10-cm inner diameter that contained pepper plants (14-day post-viral infection); the other glass odor bottle was 5 cm in height, with a 3-cm inner diameter for plant VOCs. The airflow in the olfactometer (200 mL/min) was filtered through activated carbon and calibrated using a flow meter at the end of each arm. To remove all visual cues, the Y-tube was positioned horizontally in a black airtight cubic box (90 cm × 60 cm × 40 cm). The tested odor sources (pepper plant VOCs) were enclosed in the odor bottles 5 min prior to each test to allow the odors to fill the arms. Thrips (2-day-old, starved for 1 h) were individually placed in the central tube and allowed to choose between the two arms. When the thrips had climbed over 2/3 of the side arm and stayed there for more than 30 s, it was considered to have made a selection. If the thrips had not made a choice after being placed in the straight arm for 5 min, the insect behaviour was scored as “no selection,” and it was not counted in the total data. The direction of the Y-tube arms and the silicone tubes were adjusted after five tested thrips to eliminate the influence of position. The Y-tube was replaced after 10 tested thrips to eliminate the possible influence of existing odors on thrips behaviour. Each treatment consisted of 20 thrips, with three replicates per treatment.
The FintCSP1, FintCSP2, FintOBP, FintOR, FoccCSP, and enhanced green fluorescent protein (EGFP) coding sequences were obtained from GenBank under accession numbers MT199111, MT211602, OK067245, MT211603, AEP27186.1, and U55761.1, respectively. Primers were designed using Primer Premier 5.0, and the T7 promoter sequence (5′-[…]-3′) was added to the 5′ end of each primer (S1 Table). DNA fragments containing T7 promoter sequences were amplified by PCR using pEASY-T1/target gene or pUC-EGFP (preserved in the laboratory) plasmid DNA as template. Then, a double-stranded RNA (dsRNA) was produced from each target gene using the HiScribe T7 Quick High Yield RNA Synthesis Kit (New England Biolabs) according to the manufacturer’s instructions. […]

[2] = system: fall webworm moth (Hyphantria cunea) antennae; design: method as in PMID 23166622; conditions: cited from earlier work

Chain of recombinant wild-type FintCSP1 (A0A891LVF4 entry or part of it): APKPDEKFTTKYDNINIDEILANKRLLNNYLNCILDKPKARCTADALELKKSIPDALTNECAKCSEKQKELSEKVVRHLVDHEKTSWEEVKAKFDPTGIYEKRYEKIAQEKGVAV
Chain of FoccCSP-Glu67Ala (G4Y3X1 entry or part of it E67A): as the sequence (A0A891LVF4 entry or part of it) above, with D5E, I15V, A44N, E48A, A62M, V80A, D81E, H82K, T85E, Q109K counted along it
Chain of FoccCSP-Phe27Ala (G4Y3X1 entry or part of it F27A): as the sequence (A0A891LVF4 entry or part of it) above, with D5E, F8A, I15V, A44N, A62M, V80A, D81E, H82K, T85E, Q109K counted along it
Chain of FoccCSP-Thr29Ala (G4Y3X1 entry or part of it T29A): as the sequence (A0A891LVF4 entry or part of it) above, with D5E, T10A, I15V, A44N, A62M, V80A, D81E, H82K, T85E, Q109K counted along it

## CC/C=C\CC=O [cis-3-hexenal]
[1]; competitive fluorescence binding assay, classes of Ki
  binding affinity to FintCSP1 (in words): moderate binding affinity
[1]; displacement of 1-NPN, protein and 1-NPN both 2 μM, 50 mM Tris-HCl pH 7.4, read-out: IC50
  IC50: 36.2 ± 1 µM
[1]; displacement of 1-NPN, protein and 1-NPN both 2 μM, pH 7.4, calculated from IC50, read-out: Ki
  Ki: 28.7 ± 0.79 µM
FoccCSP-Glu67Ala
  IC50: 92.9 ± 2.14 µM
  Ki: 83.7 ± 1.93 µM
FoccCSP-Glu67Ala; FoccCSP-Glu67Ala compared to the wild-type protein
  binding affinity to cis-3-hexenal (in words): significantly decreased binding affinities
FoccCSP-Phe27Ala
  IC50: > 100 µM
FoccCSP-Phe27Ala; FoccCSP-Phe27Ala
  affinity for cis-3-hexenal (in words): no affinity
FoccCSP-Thr29Ala
  IC50: > 100 µM
FoccCSP-Thr29Ala; FoccCSP-Thr29Ala
  affinity for cis-3-hexenal (in words): no affinity
F. intonsa; dsEGFP-treated F. intonsa, vs liquid paraffin control
  individuals that recognized the compound: 73.3%
F. intonsa; dsFintCSP1-injected F. intonsa, vs liquid paraffin control
  preference of FintCSP1-silenced thrips (in words): no preference
F. intonsa; volatile compound vs liquid paraffin control, n = 60
  preference of F. intonsa in Y-tube olfactometer (in words): reached statistical significance
[2]
  effect on antennal sensitivity to pheromones (in words): raising the sensitivity
